{"source": "patent US8557784B2", "about": "“Glycyrrhizinates of morphinan derivatives” (Standard Chem. & Pharm. Co., Ltd., priority 2011, dated 2013)", "key": {"e-NOS": {"system": "e-NOS", "assay": "e-NOS expression in Wistar rat pulmonary artery (Western blot)", "assay_type": "cell-based", "settings": "rat pulmonary artery incubated 2 hours with 0.01 mg/ml (10^-5 M); actin as internal control; FIG. 1", "protocol": "The e-NOS expression of dextromethorphan glycyrrhizinate and dimemorfan glycyrrhizinate are carried out via the following procedures.\nThe blank control group were not added with dextromethorphan glycyrrhizinate or dimemorfan glycyrrhizinate. After incubated for 2 hours, the pulmonary artery were lysed in ice-cold homogenization buffer. The homogenates were centrifuged at 13,000 rpm for 10 minutes at 4° C. The protein concentration was determined by the method of Bradford. Samples were denatured and subjected to sodium dodecylsulfate polyacrylamide gel electrophoresis (SDS-PAGE) using a 7.5% running gel. Protein were transferred to polyvinylidene difluoride (PVDF) membrane, and the PVDF membrane was incubated successively at room temperature with 5% nonfat milk-0.1% Tween-Tris buffered saline for 1 hour, with rabbit antibodies specific for anti-eNOS for 1 hour, and with horseradish peroxidase conjugated anti-rabbit IgG antibodies (HRP-conjugated anti-rabbit IgG Ab) for 1 hour. After each incubation, the membrane was washed extensively with 0.1% Tween-Tris buffered saline. The immunoreactive bands were detected by ECL reagents.\nThe expressions of actins are also tested at the same time to be the internal control and are depicted in the middle panel of FIG. 1."}, "[1]": {"assay": "Solubility in water: water added by degrees until 0.1 g of compound fully dissolves", "settings": "for Water quantity for dissolving 0.1 g solute: 28° C."}, "[2]": {"settings": "in words; cited from earlier work"}}, "note": "Counter-ions that a name gives are not always drawn."}
{"compound": "dimemorfan glycyrrhizinate", "values": [{"measurement": "e-NOS expression", "setting": "e-NOS", "value": "good e-NOS expression"}, {"measurement": "Solubility (28° C.)", "setting": "[1]", "value": 0.05, "unit": "%"}, {"measurement": "Water quantity for dissolving 0.1 g solute", "setting": "[1]", "value": 200, "unit": "mL"}]}
{"compound": "COc1ccc2c(c1)[C@]13CCCC[C@@H]1[C@H](C2)N(C)CC3", "note": "[Dextromethorphan hydrobromide]", "values": [{"measurement": "Solubility (28° C.)", "setting": "[1]", "value": 2.5, "unit": "%"}]}
{"compound": "Dimemorfan phosphate", "values": [{"measurement": "Solubility (28° C.)", "setting": "[1]", "value": 2.5, "unit": "%"}, {"measurement": "Water quantity for dissolving 0.1 g solute", "setting": "[1]", "value": 4, "unit": "mL"}]}
{"compound": "dextromethorphan glycyrrhizinate", "values": [{"measurement": "e-NOS expression", "setting": "e-NOS", "value": "good e-NOS expression"}]}
{"compound": "COc1ccc2c(c1)[C@]13CCCC[C@@H]1[C@H](C2)N(C)CC3", "note": "[dextromethorphan]", "values": [{"measurement": "Solubility in water", "setting": "[2]", "value": "water insoluble"}]}
